From US8551541B2, “Disinfectant making air fresh and preparation and method and use thereof” (priority 2009, dated 2013)

Tested on: influenza A virus FM1 strain
Assay type: cell-based

NC(=O)c1ncn([C@@H]2O[C@H](CO)[C@@H](O)[C@H]2O)n1 [Ribavirin]
inhibitory effect on FM1 (in words): markedly inhibitory effect
